Source: ChEMBL document CHEMBL1143071, “Sodium pancratistatin 3,4-o-cyclic phosphate, a water-soluble synthetic derivative of pancratistatin, is highly effective in a human colon tumor model” (J Nat Prod, 2008)
Calls of active or inactive are those of the source. The rule behind the calls is not given here.

Experiments:
[1] = system: DLD-1; test: Antitumor activity in human DLD1 cell xenografted CD1 immunodeficient nude mouse assessed as mean tumor doubling time; format: functional
[2] = system: DLD-1; test: Antitumor activity in human DLD1 cell xenografted CD1 immunodeficient nude mouse assessed as weight loss; format: functional
[3] = system: DLD-1; test: Disruption of normal microtubule structure in human DLD1 cells at 440 nM; format: functional, cell-based
[4] = system: DLD-1; test: Antitumor activity in human DLD1 cells xenografted CD1 immunodeficient nude mouse after 24 hrs assessed as decrease in functional vasculature; parameters: scale not given: the % may be the effect or the level left
[5] = system: DLD-1; test: Antitumor activity in human DLD1 cells xenografted CD1 immunodeficient nude mouse after 24 hrs assessed as increase in tumor necrosis; format: functional
[6] = system: HUVEC; test: Disruption of normal microtubule structure in HUVEC cells at 440 nM; format: functional, cell-based; conditions: Homo sapiens
[7] = system: DLD-1; test: Reduction in mitochondrial membrane potential in human DLD1 cells at 250 uM after 24 hrs assessed as decrease in fluorescence of mitoTracker green FM; format: functional, cell-based
[8] = system: DLD-1; test: Antitumor activity against human DLD1 cells after 96 hrs; format: functional, cell-based; conditions: DLD-1, 96 h
[9] = system: HUVEC; test: (§1) Disruption of normal microtubule structure in HUVEC cells at 250 uM after 3 hrs; format: functional, cell-based; conditions: Homo sapiens
[10] = system: DLD-1; test: Antitumor activity in human DLD1 cell xenografted CD1 immunodeficient nude mouse at 100 mg/kg, iv assessed as mean tumor doubling time; format: functional
[11] = system: DLD-1; test: Antitumor activity against human DLD1 cells after 1 hr by MTT assay; format: functional, cell-based; conditions: DLD-1, 1 h
[12] = system: DLD-1; test: Antitumor activity in human DLD1 cell xenografted CD1 immunodeficient nude mouse at 100 mg/kg, iv assessed as weight loss; format: functional
[13] = system: HUVEC; test: Disruption of normal microtubule structure in HUVEC cells at 250 uM after 1 hr; format: functional, cell-based; conditions: Homo sapiens
[14] = system: DLD-1; test: Antitumor activity in human DLD1 cells xenografted CD1 immunodeficient nude mouse at 100 mg/kg after 24 hrs assessed as increase in tumor necrosis; format: functional
[15] = system: DLD-1; test: Antitumor activity in human DLD1 cells xenografted CD1 immunodeficient nude mouse at 100 mg/kg after 24 hrs assessed as decrease in functional vasculature; parameters: scale not given: the % may be the effect or the level left
[16] = system: DLD-1; test: Reduction in mitochondrial membrane potential in human DLD1 cells at 250 uM after 4 hrs assessed as decrease in fluorescence of mitoTracker green FM; format: functional, cell-based
[17] = system: HUVEC; test: as §1; format: functional, cell-based; conditions: Homo sapiens; remark: listed apart in the source
[18] = system: DLD-1; test: Reduction in mitochondrial membrane potential in human DLD1 cells at 250 uM after 7 hrs assessed as decrease in fluorescence of mitoTracker green FM; format: functional, cell-based
[19] = system: DLD-1; test: Cell cycle arrest in human DLD1 cells assessed as accumulation at G2/M phase at 25 uM; format: functional, cell-based

IC50 [8] | IC50 [11] | SMILES | Activity [1] | Activity [2] | Activity [3] | Activity [4] | Activity [5] | Activity [6] | Activity [7] | Activity [9] | Activity [10] | Activity [12] | Activity [13] | Activity [14] | Activity [15] | Activity [16] | Activity [17] | Activity [18] | Activity [19]
– | – | CC(=O)O[C@H]1C(=O)[C@@]2(C)[C@H]([C@H](OC(=O)c3ccccc3)[C@]3(O)C[C@H](OC(=O)[C@H](O)[C@@H](NC(=O)c4ccccc4)c4ccccc4)C(C)=C1C3(C)C)[C@]1(OC(C)=O)CO[C@@H]1C[C@@H]2O [PACLITAXEL] | 6.2 days | 0.5% | Active | 6.5% | 8.1% | Active | – | – | – | – | – | – | – | – | – | – | –
19.7 µM | 253 µM | O=C1N[C@H]2[C@@H]3OP(=O)([O-])O[C@@H]3[C@@H](O)[C@H](O)[C@@H]2c2cc3c(c(O)c21)OCO3.[Na+] | – | – | – | – | – | – | Active | inactive | 15.1 days | 8.8% | inactive | 95.3% | 0.6% | Active | inactive | Active | inactive
